Tests used:
[1] = target: T1, Transporter, Norepinephrine (NET) (Homo sapiens, UniProt P23975); experiment: Radioligand binding, [125I] RTI-55, Eurofins
T1 construct: host or cells: MDCK cells

Serotonin 5-HT2A = Serotonin 5-HT2A (Homo sapiens, UniProt P28223); experiment: Radioligand binding, [3H] Ketanserin, Eurofins
[2] = system: spinal nerve ligation (SNL) model; experiment: Spinal nerve ligation (SNL) neuropathic pain model, von Frey paw withdrawal threshold; type: in vivo; details: SNL rats; for maximum possible effect (MPE), withdrawal threshold: 3 h after administration
Description: The SNL model, also known as the Chung model, is a widely used animal model for studying neuropathic pain, a chronic pain condition resulting from nervous system damage. This model replicates human neuropathic pain, which can stem from nerve injuries due to conditions like diabetes, shingles, or spinal cord injury. In the SNL model, the L5 or L6 spinal nerve is surgically ligated to induce nerve injury, leading to the development of long-lasting neuropathic pain symptoms in the animal. Following the nerve injury, animals display pain-related behaviors that mirror those seen in human neuropathic pain conditions, such as allodynia and hyperalgesia. Behavioral assessments conducted 14 days after surgery evaluate the animal’s sensitivity to mechanical stimuli using Von Frey filaments to quantify pain responses and measure mechanical allodynia.
In this experiment, compound 29 was administered intraperitoneally at two different doses, 50 and 100 mg/kg, and its analgesic effects were assessed by measuring the 50% withdrawal threshold at multiple time points (1, 3, and 5 h post-administration) (Figure 3A). […]
Spinal nerve ligation (SNL) was performed following the method described by Kim and Chung. […] Following the surgery, the rats were returned to their cages and monitored during recovery.
Behavioral signs indicative of neuropathic pain (mechanical allodynia) were assessed in all rats for two weeks postoperatively. The paw withdrawal threshold (PWT) was measured using von Frey filaments (Stoelting, Wood Dale, IL, USA) and the up–down method. […] A brisk withdrawal or paw flinching was recorded as a positive response. […]
Figure 3 Antinociceptive effect of compound 29 on mechanical allodynia in SNL model rats. (A) The mechanical allodynia was induced by spinal nerve ligation and evaluated by measuring paw withdrawal thresholds in response to von Frey filament stimuli. […] The MPE was calculated using the following formula: MPE (%) = [(post-treated value − pre-treatment threshold) × 100]/(maximum possible threshold − pre-treatment threshold). Data are expressed as mean ± SEM. […]

[3] = target: T2, Transporter, Dopamine (DAT) (Homo sapiens, UniProt Q01959); experiment: Radioligand binding, [125I] RTI-55, Eurofins
T2 construct: host or cells: CHO-S cells
T2 sequence (Q01959 whole entry): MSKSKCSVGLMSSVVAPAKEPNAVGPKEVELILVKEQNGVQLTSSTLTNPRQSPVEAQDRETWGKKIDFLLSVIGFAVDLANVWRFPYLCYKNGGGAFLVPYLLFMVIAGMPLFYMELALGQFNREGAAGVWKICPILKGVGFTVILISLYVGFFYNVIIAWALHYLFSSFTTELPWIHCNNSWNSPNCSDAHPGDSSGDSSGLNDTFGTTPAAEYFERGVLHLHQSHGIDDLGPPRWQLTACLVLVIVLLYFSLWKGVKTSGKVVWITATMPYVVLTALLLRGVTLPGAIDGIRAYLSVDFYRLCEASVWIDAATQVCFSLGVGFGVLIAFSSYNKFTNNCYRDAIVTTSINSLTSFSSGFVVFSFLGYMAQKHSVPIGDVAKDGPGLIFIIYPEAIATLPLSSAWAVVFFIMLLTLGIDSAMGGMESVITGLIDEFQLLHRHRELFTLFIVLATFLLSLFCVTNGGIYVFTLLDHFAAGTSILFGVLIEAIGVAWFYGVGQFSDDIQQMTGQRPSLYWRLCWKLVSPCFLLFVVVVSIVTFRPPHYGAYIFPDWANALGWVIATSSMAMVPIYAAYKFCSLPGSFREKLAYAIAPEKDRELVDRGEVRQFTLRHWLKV

[4] = In vivo pharmacokinetic study; design: species or system Sprague–Dawley rats; details: rats; for AUC(0-inf) / AUC(0-t) / CL/F / Cmax / Tmax / half-life: male, Sprague-Dawley, rat, plasma
Procedure: The in vivo pharmacokinetics parameters of compound 29 were measured in rats over 24 h following intraperitoneal (IP) and oral (PO) administration (Figure 4). These experiments were conducted to evaluate the compound’s absorption, distribution, metabolism, and excretion profiles under different routes of administration. Male Sprague–Dawley rats (n = 3 per group, weight 200–250 g) were fasted overnight but had free access to water. All animal experiments were conducted in accordance with institutional guidelines. For intraperitoneal (IP) administration, compound 29 was dissolved in saline and DMSO, while for oral (PO) administration, the compound was suspended in 0.5% carboxymethyl cellulose (CMC). All solutions were freshly prepared and filtered before administration to ensure homogeneity. Compound 29 was administered at 5 mg/kg via intraperitoneal injection or at 10 mg/kg by oral gavage. […] Blood was collected into EDTA-coated tubes and centrifuged at 2000× g for 10 min at 4 °C to separate plasma. Plasma samples were stored at −80 °C until analysis. Before analysis, plasma samples were thawed on ice, and proteins were precipitated using acetonitrile containing an internal standard. The mixture was centrifuged, and the supernatant was collected for analysis. Plasma concentrations of compound 29 were determined using a validated LC-MS/MS method. […] Quantification was performed in Multiple Reaction Monitoring (MRM) mode using Xcalibur software (version 4.4). Pharmacokinetic parameters, including AUClast, AUCinf, Cmax, Tmax, t1/2, Cl/F, and Vd, were calculated using non-compartmental analysis (NCA) with Phoenix WinNonlin software 8.5.2 (Certara, Radnor, PA, USA).

Chain of Serotonin 5-HT2A (P28223 whole entry): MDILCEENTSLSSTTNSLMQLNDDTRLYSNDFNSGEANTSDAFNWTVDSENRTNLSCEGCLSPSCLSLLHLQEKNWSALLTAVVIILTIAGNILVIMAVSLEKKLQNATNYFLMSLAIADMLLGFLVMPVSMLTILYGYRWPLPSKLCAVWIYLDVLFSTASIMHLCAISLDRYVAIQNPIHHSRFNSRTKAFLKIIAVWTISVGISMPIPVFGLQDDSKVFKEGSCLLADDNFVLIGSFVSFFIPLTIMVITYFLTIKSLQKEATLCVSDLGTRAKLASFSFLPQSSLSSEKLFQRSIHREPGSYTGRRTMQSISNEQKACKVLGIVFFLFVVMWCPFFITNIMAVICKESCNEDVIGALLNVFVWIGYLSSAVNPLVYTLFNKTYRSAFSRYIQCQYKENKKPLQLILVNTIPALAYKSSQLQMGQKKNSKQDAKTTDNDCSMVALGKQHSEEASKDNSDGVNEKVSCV
T1 sequence (P23975 whole entry): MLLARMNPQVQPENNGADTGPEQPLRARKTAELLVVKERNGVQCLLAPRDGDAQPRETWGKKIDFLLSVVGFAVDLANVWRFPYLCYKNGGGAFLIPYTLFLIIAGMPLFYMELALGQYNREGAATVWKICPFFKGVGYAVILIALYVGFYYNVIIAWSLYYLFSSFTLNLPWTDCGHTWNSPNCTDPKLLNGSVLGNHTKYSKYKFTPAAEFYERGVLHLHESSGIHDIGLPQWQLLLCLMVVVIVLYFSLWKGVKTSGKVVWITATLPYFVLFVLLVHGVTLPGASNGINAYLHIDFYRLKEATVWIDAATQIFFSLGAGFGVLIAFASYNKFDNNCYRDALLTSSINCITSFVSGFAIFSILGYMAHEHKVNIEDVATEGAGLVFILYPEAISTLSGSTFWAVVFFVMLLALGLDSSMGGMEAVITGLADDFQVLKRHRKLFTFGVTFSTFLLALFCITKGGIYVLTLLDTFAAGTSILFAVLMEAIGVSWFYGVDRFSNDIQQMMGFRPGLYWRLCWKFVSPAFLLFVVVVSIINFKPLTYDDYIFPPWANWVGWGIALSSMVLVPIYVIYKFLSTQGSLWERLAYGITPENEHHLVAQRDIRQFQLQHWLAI

With N#Cc1ccc2[nH]cc(C(=O)NCCN3CCN(c4ccc5ccccc5n4)CC3)c2c1 [Compound 29, 5-Cyano-N-(2-(4-(quinolin-2-yl)piperazin-1-yl)ethyl)-1H-indole-3-carboxamide] the “nH (Hill coefficient)” value ([1]; NET) was 0.73, the Ki ([1]; NET, Cheng and Prusoff) was 380 nM and the IC50 ([1]; NET, human recombinant MDCK cells) was 380 nM. The “times more potent at NET compared to desipramine” value ([1]; ratio of Ki values) was 3, the “nH (Hill coefficient)” value (Serotonin 5-HT2A; Serotonin 5-HT2A) was 0.88 and the Ki (Serotonin 5-HT2A; Serotonin 5-HT2A, Cheng and Prusoff) was 150 nM. For the same molecule, the IC50 (Serotonin 5-HT2A; Serotonin 5-HT2A, human recombinant CHO-Ki cells) was 520 nM, the “times the activity of reference compound ketanserin” value (Serotonin 5-HT2A; ratio of Ki values) was 1.53 and the “maximum possible effect (MPE), withdrawal threshold” value ([2]; 50 mg/kg intraperitoneal) was 24%. For the same molecule, the “maximum possible effect (MPE), withdrawal threshold” value ([2]; 100 mg/kg intraperitoneal) was 45%, the “time of most pronounced analgesic effect (Tmax)” value ([2]; 50 and 100 mg/kg intraperitoneal) was 3 h and the “nH (Hill coefficient)” value ([3]; DAT) was 0.88. The Ki ([3]; DAT, Cheng and Prusoff) was 46 nM, the IC50 ([3]; DAT, human recombinant CHO-S cells) was 57 nM and the “times more potent at DAT compared to vanoxerine” value ([3]; ratio of Ki values) was 19. For the same molecule, the AUC(0-inf) ([4]; IP, 5 mg/kg) was 1380 ng·h/mL, the AUC(0-t) ([4]; IP, 5 mg/kg) was 1030 ng·h/mL and the CL/F ([4]; IP, 5 mg/kg) was 64.7 mL/min/kg. For the same molecule, the Cmax ([4]; IP, 5 mg/kg) was 208 ng/mL, the Tmax ([4]; IP, 5 mg/kg) was 2.83 h and the half-life ([4]; IP, 5 mg/kg) was 3.49 h. For the same molecule, the AUC(0-inf) ([4]; PO, 10 mg/kg) was 430 ng·h/mL, the AUC(0-t) ([4]; PO, 10 mg/kg) was 407 ng·h/mL and the CL/F ([4]; PO, 10 mg/kg) was 401 mL/min/kg. For the same molecule, the Cmax ([4]; PO, 10 mg/kg) was 113 ng/mL, the Tmax ([4]; PO, 10 mg/kg) was 1.5 h and the half-life ([4]; PO, 10 mg/kg) was 1.67 h. For the same molecule, the Vd ([4]; IP, 5 mg/kg) was 17.9 L/kg and the Vd ([4]; PO, 10 mg/kg) was 57.4 L/kg.
